From ChEMBL document CHEMBL5303573, “Mapping human microbiome drug metabolism by gut bacteria and their genes” (Nature, 2019)

Key:
[1] = clostridioides difficile, 12 h, 2 µM
Description: The drug is tested on Clostridium difficile strain: 120 for biotransformation. The drug concentrations were measured before and after a 12-h incubation by liquid-chromatography-coupled mass spectrometry (LC–MS)

[2] = molecular target: T1, Lipase (Bacteroides thetaiotaomicron, UniProt Q8A3J3); test: The drug is tested on Bacteroides thetaiotaomicron strain: VPI-5482 for biotransformation. The drug concentrations were measured before and after a 12-h incubation by liquid-chromatography-coupled mass spectrometry (LC–MS); format: ADME; parameters: dose 2 uM; settings: 2 µM
T1 sequence (Q8A3J3 whole entry): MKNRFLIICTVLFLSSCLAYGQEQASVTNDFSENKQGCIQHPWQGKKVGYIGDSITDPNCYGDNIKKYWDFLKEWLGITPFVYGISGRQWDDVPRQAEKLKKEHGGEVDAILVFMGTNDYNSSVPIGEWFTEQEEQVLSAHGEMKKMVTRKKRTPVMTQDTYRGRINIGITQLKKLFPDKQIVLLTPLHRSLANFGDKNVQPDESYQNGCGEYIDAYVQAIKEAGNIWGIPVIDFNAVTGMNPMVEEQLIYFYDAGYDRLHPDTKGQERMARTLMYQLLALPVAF

[3] = molecular target: T2, GDSL-like protein (Collinsella aerofaciens, UniProt A4E8S4); test: The drug is tested on Collinsella aerofaciens strain: ATCC25986 for biotransformation. The drug concentrations were measured before and after a 12-h incubation by liquid-chromatography-coupled mass spectrometry (LC–MS); format: ADME; parameters: dose 2 uM; settings: 2 µM
T2 sequence (A4E8S4 whole entry): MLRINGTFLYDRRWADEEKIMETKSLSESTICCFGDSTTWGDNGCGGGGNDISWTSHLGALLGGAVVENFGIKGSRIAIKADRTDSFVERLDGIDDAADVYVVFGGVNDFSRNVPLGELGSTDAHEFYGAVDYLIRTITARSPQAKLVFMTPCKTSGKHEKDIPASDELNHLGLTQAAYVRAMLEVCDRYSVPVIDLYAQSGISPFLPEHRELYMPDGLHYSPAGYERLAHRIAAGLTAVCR

SMILES	Bacterial Biotransformation [1]	Bacterial Biotransformation [2]	Bacterial Biotransformation [3]
CC(C)NCC(O)COc1ccc(CCOCC2CC2)cc1 (stereo unspecified) [BETAXOLOL]	Compound NOT metabolized	–	–
CC(C)NCC(O)COc1ccc(CC(N)=O)cc1 (stereo unspecified) [ATENOLOL]	Compound NOT metabolized	–	–
O=C(O)c1cc(/N=N/c2ccc(S(=O)(=O)Nc3ccccn3)cc2)ccc1O [SULFASALAZINE]	–	Compound NOT metabolized	–
CCOC(=O)C1=C(C)NC(C)=C(C(=O)OC)C1c1cccc([N+](=O)[O-])c1 (stereo unspecified) [NITRENDIPINE]	–	–	Compound NOT metabolized
COc1ccnc(C[S+]([O-])c2nc3ccc(OC(F)F)cc3[nH]2)c1OC (stereo unspecified) [PANTOPRAZOLE]	–	Compound NOT metabolized	Compound NOT metabolized
Nc1ccc(/N=N/c2ccccc2)c(N)n1 [PHENAZOPYRIDINE]	–	Compound NOT metabolized	Compound NOT metabolized
COc1ccccc1OCCNCC(O)COc1cccc2[nH]c3ccccc3c12 (stereo unspecified) [CARVEDILOL]	Compound NOT metabolized	–	–
CC(=O)SCC(Cc1ccccc1)C(=O)NCC(=O)OCc1ccccc1 (stereo unspecified) [RACECADOTRIL]	–	Compound metabolized	Compound metabolized
CC(=O)Oc1ccc(C(c2ccc(OC(C)=O)cc2)c2ccccn2)cc1 [BISACODYL]	–	Compound metabolized	Compound metabolized
Clc1cccc(Cl)c1N=C1NCCN1 [CLONIDINE]	Compound NOT metabolized	–	–
CCOc1cc(CC(=O)N[C@@H](CC(C)C)c2ccccc2N2CCCCC2)ccc1C(=O)O [REPAGLINIDE]	Compound NOT metabolized	–	–
C[C@@H]1CC[C@H]2[C@@H](C)C(=O)O[C@@H]3O[C@@]4(C)CC[C@@H]1[C@]32OO4 [ARTEMISININ]	Compound metabolized	Compound NOT metabolized	Compound NOT metabolized
CN/C(=N/CCSCc1nc[nH]c1C)NC#N [CIMETIDINE]	Compound NOT metabolized	–	–

The next lines start with the values.

Bacterial Biotransformation [1]	Bacterial Biotransformation [2]	Bacterial Biotransformation [3]	SMILES
Compound NOT metabolized	–	–	CCCC(=O)Nc1ccc(OCC(O)CNC(C)C)c(C(C)=O)c1 (stereo unspecified) [ACEBUTOLOL]
Compound metabolized	–	–	c1ccc([C@H]2CN3CCSC3=N2)cc1 [LEVAMISOLE]
–	Compound NOT metabolized	Compound NOT metabolized	CCN(CC)C(=O)/C(C#N)=C/c1cc(O)c(O)c([N+](=O)[O-])c1 [ENTACAPONE]
–	Compound NOT metabolized	Compound NOT metabolized	CCS(=O)(=O)CCn1c([N+](=O)[O-])cnc1C [TINIDAZOLE]
–	Compound NOT metabolized	Compound NOT metabolized	C#C[C@]1(O)CC[C@H]2[C@@H]3CCC4=Cc5oncc5C[C@]4(C)[C@H]3CC[C@@]21C [DANAZOL]
–	Compound NOT metabolized	Compound NOT metabolized	CC(=O)OCC(=O)NCCCOc1cccc(CN2CCCCC2)c1 [ROXATIDINE ACETATE]
–	Compound metabolized	Compound metabolized	CC(=O)Nc1ccc(OC(C)=O)cc1 [DIACETAMATE]
